Source: patent publication US20140298493A1, “PIK3CA H1047R Knock-In Non-Human Animal Breast Cancer Model” (priority 2011, published 2014)
Entries after “also recorded” stand apart in the source; their conditions may differ.

What was measured:
[1] = test system: pAKT and pS6 (PI3K pathway) in PIK3CA^e20H1047R mammary tumor explants; assay: Western blot of tumors from GDC-0941 treated mice (PI3K pathway inhibition); type: in vivo, C.B-17 SCID beige mice; conditions: at least up to 10 hours following treatment
Description: Frozen tumors were weighed and lysed with a pestle PP (Scienceware, NJ) in cell extract buffer (Invitrogen, CA) supplemented with protease inhibitors (F. Hoffman-La Roche, Ltd., Germany), 1 mM phenylmethysulfonyl fluoride, and phosphatase inhibitor cocktails 1 and 2 (Sigma, Mo.). Protein concentrations were determined using the Pierce BCA Protein Assay Kit (Rockford, Ill.). For Western blots equal amounts of protein were separated by electrophoresis through NuPage Bis-Tris 4-12% gradient gels (Invitrogen, CA), proteins were transferred onto nitrocellulose pore membranes using the iBlot system (Invitrogen, CA). Primary antibodies used for blotting include pAkt (Ser473), pAkt (Thr308), total Akt, pS6 (Ser235/236), pS6 (Ser240/242) and total S6 antibodies were obtained from Cell Signaling Technology (Danvers, Mass.), and anti-actin antibody was purchased from Sigma-Aldrich (St. Louis, Mo.). Chemiluminescence western blotting detection (Amersham Biosciences, PA) coupled with appropriate secondary horseradish peroxidase-conjugated secondary IgG antibodies was employed, to detect the primary antibody bound proteins.

[2] = test system: PIK3CA^e20H1047R mammary tumor explants (spindle cell tumor with TP53 mutations) grown as xenografts; assay: Drug efficacy study: mammary tumor explants implanted subcutaneously near mammary fat pad, tumor growth inhibition and time to progression; type: in vivo, C.B-17 SCID beige mice
Description: Tumor sizes and mouse body weights were recorded twice weekly over the course of the study. […] The 2.5 and 97.5 percentiles of the simulated distribution were used as the […] UIs.

CS(=O)(=O)N1CCN(Cc2cc3nc(-c4cccc5[nH]ncc45)nc(N4CCOCC4)c3s2)CC1 [GDC-0941]
pAKT and pS6 in tumor from treated mice [1]: significant decrease in pAKT and pS6; also recorded: evidence of PI3K pathway inhibition | tumor growth inhibition (TGI) ([2]; 150 mg/kg, daily oral gavage for 13 days, % TGI relative to vehicle (AUC based), highest TGI): 85% | response of tumor explants grown as xenografts to treatment ([2]; FIG. 5a legend): respond to treatment | time to progression, log-rank test versus vehicle control ([2]; all doses tested (50, 100, 150 mg/kg), p<0.0001 at 150 mg/kg): statistically significant difference | tumor growth inhibition compared to vehicle treatment ([2]; other doses tested (50 and 100 mg/kg), daily oral gavage for 13 days): tumor growth inhibition was also observed
